PMC4890880 (ACS infectious diseases, 2016)
Like-named read-outs stand apart in the source and are kept apart here.

Assays:
[1] = tested on: Plasmodium berghei (Pb-Luc) exoerythrocytic-stage parasites; test: microbe, parasite or virus in culture
HepG2-A16-CD81EGFP cells = test: cells; settings: Homo sapiens; for IC50: HepG2, read-out: Tox IC50; for inhibition at 50 µM: HepG2, read-out: Tox max inhibition (%) @ 50 uM
[2] = read-out: Inhibition% @ 50 uM rep1
[3] = read-out: Inhibition% @ 50 uM rep2
[4] = read-out: PbLuc IC50, dose response, 1/3 dilutions, max conc. 10 or 50 uM, unit inferred
[5] = read-out: PbLuc max inhibition (%) @ 50 uM
[6] = HepG2, read-out: HepG2 Tox% @ 50 uM rep1
[7] = HepG2, read-out: HepG2 Tox% @ 50 uM rep2

| Structure (SMILES) | inhibition at 50 µM [1, 2] [%] | inhibition at 50 µM [1, 3] [%] | IC50 [1, 4] [µM] | inhibition at 50 µM [1, 5] [%] | cytotoxicity at 50 µM (HepG2-A16-CD81EGFP cells; [6]) [%] | IC50 (HepG2-A16-CD81EGFP cells) [µM] | inhibition at 50 µM (HepG2-A16-CD81EGFP cells) [%] | cytotoxicity at 50 µM (HepG2-A16-CD81EGFP cells; [7]) [%] | IC50 ([1]; read-out: PbLuc IC50, dose response, unit inferred) [µM] |
| --- | --- | --- | --- | --- | --- | --- | --- | --- | --- |
| COc1cccc(C(=O)NC(c2ccc(C)cc2)c2cc(Cl)c3cccnc3c2O)c1 (stereo not shown) [MMV665969] | 104 | 104 | 1.65 | 101 | 92 | 4.83 | 89 | – | – |
| CN1CCN(c2ccc(Nc3c4ccccc4nc4ccccc34)cc2)CC1 [MMV006172] | 104 | 106 | 3.44 | 99 | 97 | 5.18 | 94 | 99 | – |
| Cc1cccc(-n2ncc3c(=O)[nH]c(-n4nc(C)cc4NC(=O)c4cc5ccccc5o4)nc32)c1 [MMV403679] | 100 | 100 | – | – | 38 | – | – | 47 | – |
| O=C(Nc1nc(-c2ccccn2)cs1)c1ccccc1Br [MMV665909] | 98 | 98 | – | – | 79 | – | – | 86 | – |
| Oc1ccc(-c2nc(-c3ccc4oc5ccc(-c6[nH]c(-c7ccc(O)cc7)nc6-c6ccccc6)cc5c4c3)c(-c3ccccc3)[nH]2)cc1 [MMV000753] | 104 | 104 | 5.88 | 99 | 101 | > 50 | 39 | – | – |
| COc1ccc(Nc2nc(NN=Cc3ccc(O)cc3)nc(Nc3ccc([N+](=O)[O-])cc3)n2)cc1 [MMV666689] | 98 | 98 | 15.9 | 95 | 97 | 46.8 | 73 | – | – |
| O=C(NC1CCN(Cc2ccccc2)CC1)c1cc(C(=O)NC2CCN(Cc3ccccc3)CC2)cc(C(=O)NC2CCN(Cc3ccccc3)CC2)c1 [MMV019881] | 104 | 104 | 14.7 | 94 | 101 | > 50 | 60 | – | – |
| O=C(Nc1ccc(CN2CCOCC2)cc1)c1ccc(-c2ccc(Br)cc2)o1 [MMV665901] | 104 | 106 | – | – | 101 | – | – | 102 | – |
| CC(=O)NCCc1nc2ccccc2n1Cc1ccc(C(C)C)cc1 [MMV007617] | 104 | 106 | – | – | 81 | – | – | 80 | – |
| CC(C)OCc1cc(CN2CCN(c3cccc(Cl)c3)CC2)c(O)c2ncccc12 [MMV000788] | 103 | 106 | 0.99 | 101 | 99 | 3.01 | 94 | 100 | – |
| CCOc1c(Cl)cc(CNCC(O)c2ccccc2)cc1OC (stereo not shown) [MMV396632] | 99 | 96 | – | – | 82 | – | – | 76 | – |
| COC(=O)c1ccc(C2C3=C(O)CC(c4ccc(F)cc4)CC3=Nc3ccccc3N2C(=O)c2ccccc2)cc1 (stereo not shown) [MMV011438] | 98 | 96 | 3.16 | 97 | -12 | > 50 | 8 | – | – |
| Cc1cc(NC(=O)C2c3ccccc3C(=O)N(CC(C)C)C2c2cccs2)no1 (stereo not shown) [MMV006429] | 103 | 104 | – | 96 | 15 | > 50 | 18 | 18 | 21.4 |
| Cc1ccc(C(=O)c2oc3ccc4c(C)cc(=O)oc4c3c2C)cc1 [MMV086103] | 103 | 103 | – | – | 40 | – | – | – | – |
| CC(C)(C)C(=O)Nc1ccc(C(=O)Nc2cccc(-c3nc4ccccc4[nH]3)c2)cc1 [MMV665879] | 102 | 103 | – | – | 99 | – | – | 100 | – |
| COc1ccc(NC(=O)C2c3ccccc3C(=O)N(CC(C)C)C2c2cccs2)cc1Cl (stereo not shown) [MMV000642] | 104 | 106 | 17 | 97 | 50 | > 50 | 24 | 30 | – |
| CCOC(=O)c1cnc2ccc(OC)cc2c1Nc1ccc(N2CCN(C)CC2)cc1 [MMV000704] | 101 | 102 | – | – | 97 | – | – | – | – |
| c1ccc(Cn2c(N=Nc3c(Nc4ccccc4)ccc4ccccc34)nc3ccccc32)cc1 [MMV666023] | 99 | 98 | 4.21 | 100 | 83 | 12 | 83 | 86 | – |
| CC(C)c1ccc(CNCC(O)c2ccccc2)cc1 (stereo not shown) [MMV001049] | 100 | 102 | – | – | 96 | – | – | 97 | – |
| CN(C)c1ccc(C(O)(c2ccc(N(C)C)cc2)c2ccc(N(C)C)cc2)cc1 [MMV665941] | 102 | 104 | 1.69 | 99 | 95 | 2.31 | 96 | 97 | – |
| CCCOCc1cc(CN2CCN(c3cccc(Cl)c3)CC2)c(O)c2ncccc12 [MMV000787] | 100 | 100 | 0.94 | 101 | 93 | 3.49 | 100 | – | – |
| CC(O)(c1ccc(Cl)cc1)C(CN1CCCCC1)c1ccccc1 (stereo not shown) [MMV000620] | 101 | 102 | – | – | 63 | – | – | 90 | – |
| O=c1nc(C=Cc2ccc(Br)cc2)oc2ccccc12 [MMV666599] | 102 | 103 | – | – | 70 | – | – | – | – |
| Cc1ccc(C2CC(C(F)(F)F)n3nc(C(=O)N4CCN(C(c5ccccc5)c5ccccc5)CC4)cc3N2)cc1 (stereo not shown) [MMV000699] | 102 | 101 | – | – | 49 | – | – | – | – |
| O=C(NCCCN1CCC(N2CCCCC2)CC1)C1=Cc2cc(Br)ccc2OC1 [MMV019995] | 102 | 102 | – | – | 100 | – | – | – | – |
| Cc1ccc(S(=O)(=O)c2c(COC(=O)c3cccc(C)c3)c(-c3ccccc3)nn2C)cc1 [MMV665936] | 102 | 103 | – | – | 27 | – | – | – | – |
| Cc1ccc(-c2nc3ccccc3o2)cc1NCc1cc(Cc2ccccc2)ccc1O [MMV020912] | 75 | 76 | – | – | 13 | – | – | – | – |
| CCN(CC)CCNc1ccnc2cc(Cl)ccc12 [MMV006087] | 101 | 103 | – | – | 53 | – | – | 87 | – |
| Cc1ccc(C)c(-c2csc(Nc3ccc(C)c(C)c3)n2)c1 [MMV007654] | -107 | -33 | – | – | -26 | – | – | – | – |
| Oc1c(CN2CCN(c3ccccc3F)CC2)cc(Br)c2cccnc12 [MMV000760] | 102 | 101 | 1.84 | 93 | 95 | 11.5 | 78 | – | – |
